Measured values from publication PMC12075652, “ATP functions as a pathogen-associated molecular pattern to activate the E3 ubiquitin ligase RNF213” (Nature Communications, 2025).

Experiments:
[1] = target: T1, RNF213-UBE2L3~Ub complex (RNF213-ABP) (Mus musculus, UniProt E9Q555); experiment: cryo-EM structure, […] Å; type: binding; conditions: ADP modelled in AAA3 and AAA4; ATPγS-stimulated labelling reaction applied directly to grid
T1 construct: full-length murine RNF213 covalently linked at Cys4462 to human UBE2L3~Ub activity-based probe; ubiquitin and RZ domain not resolved; with Ubiquitin-conjugating enzyme E2 L3 (Homo sapiens); Ubiquitin (Homo sapiens)

RNF213 (∆N338) [2] = target: T2, RNF213 (∆N338) (Mus musculus, UniProt E9Q555); experiment: antagonism of ATPγS-dependent activation, ABP labelling; type: biochemical; conditions: 900 μM ADP against ATPγS titration; pH 7.5, 2.5 mM MgCl2, 30 °C
T2 construct: N-terminal 338 residues deleted (∆N338), recombinant; biotin UBE2L3~Ub activity-based probe as read-out

RNF213 [3] = target: T3, RNF213 (Mus musculus, UniProt E9Q555); experiment: UBE2L3~Ub discharge assay; type: biochemical; conditions: activator; 1 mM nucleotide, 0.025 μM E3, 20 μM E2~Ub
T3 construct: full-length recombinant protein, about 600 kDa, N-terminal Strep(II) tag in the pulldown construct

RNF213 (∆N338) [4] = target: T2, RNF213 (∆N338); experiment: activation of RNF213 labelling by biotin UBE2L3~Ub activity-based probe, blot quantification; type: biochemical
RNF213 [5] = target: T4, RNF213 (Mus musculus, UniProt E9Q555, E2449Q/E2806Q); experiment: cryo-EM structure, […] Å; type: binding; conditions: ATP modelled in AAA4, AAA3 empty; WB34 mutant
T4 construct: full-length recombinant protein, about 600 kDa, N-terminal Strep(II) tag in the pulldown construct

EC50 (RNF213 (∆N338) [4]) [µM] | SMILES | cryo-EM structure, 3.8 Å [1] | antagonism of ATPγS-dependent activation, ABP labelling (RNF213 (∆N338) [2]) | UBE2L3~Ub discharge assay (RNF213 [3]) | cryo-EM structure, 4.5 Å (RNF213 [5])
– | Nc1ncnc2c1ncn2[C@@H]1O[C@H](COP(=O)(O)OP(=O)(O)O)[C@@H](O)[C@H]1O [ADP] | new density at the AAA3 and AAA4 sites allowed modeling of ADP | These data suggest that ADP inhibits ATP-dependent activation | – | –
85 | Nc1ncnc2c1ncn2[C@@H]1O[C@H](COP(=O)(O)OP(=O)(O)OP(O)(O)=S)[C@@H](O)[C@H]1O [ATPγS] | – | – | (ATPγS) and adenylyl-imidodiphosphate (AMP-PNP) also stimulated E2~Ub discharge | –
– | Nc1ncnc2c1ncn2[C@@H]1O[C@H](COP(=O)(O)OP(=O)(O)NP(=O)(O)O)[C@@H](O)[C@H]1O [AMP-PNP] | – | – | (ATPγS) and adenylyl-imidodiphosphate (AMP-PNP) also stimulated E2~Ub discharge | –
– | Nc1ncnc2c1ncn2[C@@H]1O[C@H](COP(=O)(O)OP(=O)(O)OP(=O)(O)O)[C@@H](O)[C@H]1O [ATP] | – | – | E3 activity was enhanced by ATP, but not by ADP or AMP | Although ATP could be modeled into AAA4, AAA3 was empty
